Data on 2 compounds can be found in US20100249413A1, “STABILIZED PHARMACEUTICAL COMPOSITION” (priority 2006, published 2010).

The conditions of data set [1]: bulk material, reported in Patent Document 2; cited from earlier work.
For data set [2] the following is noted: reported in Patent Document 1; cited from earlier work.
For data set [3] the following is noted: bulk material, reported in Patent Document 2; cited from earlier work. This is another data set of the same source.
The next data set concerns cancer proliferation. As to conditions: reported in Patent Document 1; cited from earlier work.
The nature of data set [4]: Light stability of compound A solution with various stabilizers: photolyzed substances by HPLC (Experimental Example 1). Format: physicochemical. To be noted: compound A drug solution 5 mg/mL, D65 lamp/1000 lux, 24 hours, room temperature.
Experimental: Each sample was stored upside-down under a condition of D65 lamp/1000 lux in a constantly changing room temperature for 24 hours to evaluate the stability by measuring the increased amounts of photolyzed substances. The measurement of photolyzed substances was carried out using HPLC.
Mobile phase (liquid A): 0.1% trifluoroacetic acid aqueous solution/acetonitrile=9:2, (liquid B) acetonitirle, gradient % (capacity) B: 0% (0 to 60 min)/linear 75% (60 to 80 min)/linear 0% (80 to 100 min), column:TSK-gel ODS-80TsQA, 4.6×150 mm, particle diameter 5 μm (produced by Tosoh Corp.), flow rate: 1 mL/min, column temperature: 40° C., detection: UV 270 nm.

Consider `COCCn1c2c([n+](Cc3cnccn3)c1C)C(=O)c1ccccc1C2=O.[Cl-]` [chloride of compound A, 1-(2-methoxyethyl)-2-methyl-4,9-dioxo-3-(pyrazin-2-ylmethyl)-4,9-dihydro-1H-naphtho[2,3-d]imidazol-3-ium chloride], for which the “storage stability (humidity, long-term storage)” value in data set [1] is reported as “unstable to humidity”. In data set [2], the toxicity entry is recorded as “low in toxicity”. For the same compound, in data set [3], the hygroscopicity result was “has hygroscopicity”. Besides, the “cancer proliferation-inhibitory activity in vivo” value with cancer proliferation is reported as “excellent cancer proliferation-inhibitory activity in vivo”.
`COCCn1c2c([n+](Cc3cnccn3)c1C)C(=O)c1ccccc1C2=O` [compound A, 1-(2-methoxyethyl)-2-methyl-4,9-dioxo-3-(pyrazin-2-ylmethyl)-4,9-dihydro-1H-naphtho[2,3-d]imidazol-3-ium]: the “Photolyzed Substance Amount (%)” value in data set [4] turned out to be 3.4%.
